Laboratory results published in article PMC12461628, “Tolerogenic antigen-specific vaccine induces VISTA-enriched regulatory T cells and protects against arthritis in DRB1∗04:01 mice” (Molecular Therapy, 2025).

Test: IL-17A ELISpot, lymph node cells after DTH
Format: cell-based, mouse
Conditions: ConA 1 μg/mL, 48 h, 37°C
Experimental: For T cell recall assays, 1 × 10^6 lymph node cells per/well were plated in anti-IL17A (TC11-18H10.1, 5 μL, Mabtech)-coated plates (Merck Millipore, #MSIPS4W10), stimulated with denatured bCOL2 (30 μg/mL), and incubated for 48 h at 37°C. Positive controls consisted of lymph node cells stimulated with Concanavalin A (ConA; 1 μg/mL, Sigma), while negative controls comprised unstimulated cells in complete medium only. Bound IL-17A was detected with anti-IL17A (TC11-8H4, 1 μg/mL, Mabtech) followed by streptavidin-conjugated alkaline phosphatase. The spots were developed using the substrate BCIP/Nitroblue Tetrazolium (Sigma). Scanned wells (ImmunoScan) were analyzed with ImmunoSpot software (Cellular Technology).

## Concanavalin A [ConA]
  IL-17A ELISpot signal, positive control: exceeds 600 SFC/10^6 cells
